In patent US20160340656A1, “PEPTIDES DERIVED FROM GSE 24.2 FOR TREATING DISEASES CAUSED BY OXIDATIVE STRESS AND DAMAGE TO DNA” (CONSEJO SUPERIOR DE INVESTIGACIONES CIENTÍFICAS (CSIC), priority 2013, published 2016):

What was measured:
[1] = test system: AT2078 cells of patients with ataxia telangiectasia; test: Damage to DNA in AT2078 cells: histone H2AX Ser139 foci after expression of GSE4 or SGSE4; assay type: cell-based, human
Method: FIG. 14. Determination of damage to DNA in AT cells after transfecting peptides GSE4 and SGSE4: AT2078 AT cells were infected with a lentiviral vector expressing GSE4, SGSE4 or a GFP empty vector and 24 hours later were fixed for processing and hybridised with an antibody against phosphorylated histone H2AX (Ser139). Control C-1787 cells were used as the negative control. Next they were hybridised with a fluorescein-labelled antibody and were stained with DAPI to locate the nuclei.
As the peptide denominated GSE4 was the smallest sized of the peptides with ability to inhibit damage to DNA, we studied if another peptide with a similar sequence localised in the sequence of peptide GSE24.2 had the same activity or if that activity was specific to GSE4. Peptide SGSE4 (SEQ ID No. 15) is similar to GSE4 in sequence (amino acids LDPK/LDKP that constitute consensus sequences for pseudouridine synthases) and size and is found in the TRUBII domain of dyskerin. Cell lines AT2078 of patients with ataxia telangiectasia were used for this test. Cell line C-1787 was used as the control cell line. The cells were infected with the bicistronic lentiviral vector pCMV-GFP-GSE4, SGSE4 or GFP. After 48 hours of infection the cells were fixed with formaldehyde and then permeabilized by treating them with Triton X-100. The damage to DNA was estimated by studying the signal after hybridisation of the cells with an antibody against histone H2AX Ser139 and subsequent hybridisation with an antibody bound to fluorescein. The number of foci with stain for histone H2AX per nucleus was determined by confocal microscopy in a total of 200 cells and the data represented as a percentage of cells with a specific number of foci.

AT3189-P AT lymphoblasts = test: ROS levels by DHE and flow cytometry in AT lymphoblasts; assay type: cell-based, human; conditions: AT3189-P cells, three weeks after infection, DHE, versus AT736C control cells
Method: FIG. 3. Determination of ROS levels in AT cells: AT3189-P AT cells were infected with a lentiviral vector expressing GSE24.2 or a GFP empty vector and three weeks later were loaded with the DHE reagent that detects Reactive Oxygen Species (ROS) levels. AT736C cells were used as a control. Relative fluorescence of the three cell lines and the proportion of cells with maximum intensity were determined through flow cytometry using wavelengths of 518 nm absorption and 605 nm emission. The data are shown as relative percentage of cells that emit at this wavelength.
One of the characteristics of AT cells is an increase in free radical content. This is due to the failure of function of protein ATM, which is able to maintain the redox balance in normal cells when the cells are exposed to environmental stress such as in vitro culture. In order to verify if expression of GSE24.2 has some impact on the regulation of free radical levels, we used the compound dihydroethidium (Hydroethidine), which enables quantifying the levels of free radicals in living cells. […] Three weeks after infection, the cells were loaded with the DHE reagent for 30 minutes and the proportion of cells with different free radical content was determined by flow cytometry.

Sequence	overall correction of damage to DNA [1] [%]	AT cells in which overall damage to DNA is corrected ([1]; 200 cells) [%]	ROS levels (AT3189-P AT lymphoblasts)
GFINLDKPSNP [GSE4]	60	38	–
GFINLDKPSNPSSHEVVAWIRRILRVEKTGHSGTLDPKVTGCLIVCIERATRLVK (GSE24.2; listed as Homo sapiens) [55-amino-acid peptide corresponding to the protein dyskerin; known from WO2007/090911]	–	–	reduced in AT3189-P GSE24.2 cells to values comparable to those found in the AT736C control cells
